Where “and” joins values, the source holds several entries; their conditions need not be identical. Equal values may be shown once.
| SMILES | pKa |
| --- | --- |
| CN(C)C(C)(C)CCCc1ccc(C(C)(C)C)cc1 | 10.4 |
| COCC1CC(C(=O)NC[C@H]2CCCO2)CN(Cc2nc(N3CCOCC3)oc2C)C1 (stereo not given in full) | 7.8 |
| NC(=O)CCCc1ccc(Nc2c3ccccc3nc3ccccc23)cc1 | 7.67 |
| COc1cc(NS(C)(=O)=O)ccc1Nc1c2ccccc2nc2c(C(=O)N(C)C)cccc12 | 6.16 |
| N[C@@H]1C[C@]1(F)c1ccccc1 | 6.98 |
| CN1CC[C@H](N(C)C(=O)N2CC(c3cc(F)ccc3F)=C[C@@]2(CO)c2ccccc2)[C@H](F)C1 | 7.6 |
| BP(=O)(OC[C@H]1O[C@@H](n2cnc3c(N)nc(SC)nc32)[C@H](O)[C@@H]1O)OP(=O)(O)CP(=O)(O)O (stereo not given in full) | 8.4 |
| Cl.Cl.NCCS | 9.11 |
| C[C@]12CC[C@H]3[C@@H](CCC4=CC(=O)CC[C@@]43C)[C@@H]1CC[C@@H]2O | 4.48 |
| O=C(Nc1ccccc1)Nc1ccc(Nc2c3ccccc3nc3ccccc23)cc1 | 7.67 |
| CN1C=CN(C2NC(C(Cl)(Cl)Cl)=CN2c2ccc(S(N)(=O)=O)cc2)C=C1 (stereo not given) | 7.68 |
| c1nc[nH]n1 | 2.19 |
| CCN(CC)CCCC(C)Nc1c2ccc(Cl)cc2nc2ccc(OC)cc12 (stereo not given) | 10.2 |
| Cc1cc(Cl)c(N=C2NCCN2)c(Cl)c1 | 8.29 |
| Cc1cc(Cl)ccc1N=C1NCCN1 | 9.99 |
| O=c1[nH]c2cc(Cl)ccc2c(O)c1-c1ccccc1 | 5.4 |
| CSc1nccn1C | 5.95 |
| O=C(NCc1ccccc1)C1=CC2c3ccccc3C1c1ccccc12 | -2.01 |
| Nc1cccc(Nc2c3ccccc3nc3ccccc23)c1 | 7.58 |
| FC1CCCNC1 (stereo not given) | 9.3 |
| Cc1cc(Br)cc(C)c1N=C1NCCN1 | 10.2 |
| O=S(=O)(Nc1ccc(Nc2c3ccccc3nc3ccccc23)cc1)c1ccccc1 | 7.09 |
| O=C(O)CN(CCN(CC(=O)O)CC(=O)O)CCN(CC(=O)O)C(COCc1ccccc1)C(=O)O (stereo not given) | 2.07 |
| Cc1ccc(-c2nc3ccc(C)cn3c2CC(=O)N(C)C)cc1 | 6.02 |
| CNC(=O)c1cccc2c(Nc3ccc(NS(C)(=O)=O)cc3OC)c3cccc(C)c3nc12 | 6.4 |

| SMILES | pKa |
| --- | --- |
| Brc1ccccc1Nc1c2ccccc2nc2ccccc12 | 6.41 |
| Cc1cc(C)c(N=C2NCCN2)c(C)c1 | 10.8 |
| Cl.O=C(c1ccc(CN2CCOCC2)cc1)N1CCN(C2CC2)CC1 | 5.3 |
| COc1cccc2c(Nc3ccc(NS(C)(=O)=O)cc3)c3ccccc3nc12 | 7.15 |
| COc1cccc(Nc2c3ccccc3nc3ccccc23)c1 | 7.21 |
| Cc1cccc2c(Nc3ccc(NS(C)(=O)=O)cc3)c3ccccc3nc12 | 7.15 |
| Cc1cc(=O)oc2cc(O)ccc12 | 7.8 |
| CN(C)CCC1(Cc2ccc(C(C)(C)C)cc2)COC1 | 9.2 |
| CSc1ccc2c(c1)N(CCC1CCCCN1C)c1ccccc1S2 (stereo not given) | 9.5 |
| CN1C=CN(C2NC(C(F)(F)F)=CN2c2ccc(S(N)(=O)=O)cc2)C=C1 (stereo not given) | 7.34 |
| Cc1ccc(NS(=O)(=O)Cc2ccccc2)c(=O)n1CC(=O)NC[C@H]1CN=C(N)NC1 | 14 |
| Cc1cc(=O)n(-c2ccccc2)n1C | 1.44 |
| CS(=O)(=O)Nc1ccc(Nc2c3ccccc3nc3cc(C#N)ccc23)cc1 | 5.75 |
| COc1ccc(-c2nnc(C(=O)N3CC(Oc4ccc(CN5CCCC56COC6)cc4)C3)o2)cc1 | 6 |
| COc1ccc(Nc2c3ccccc3nc3ccccc23)cc1 | 7.94 |
| OB(O)C1=CCCS1 | 7.16 |
| CCCCN | 10.7 |
| CN(C)CCCN1c2cc(F)ccc2CCc2ccc(F)cc21.Cl | 7.6 |
| O=C(O)c1coc2ccccc2c1=O | 8.85 |
| Oc1cc(C2=CCNCC2)on1 | 9.4 |
| c1c[nH]nn1 | 1.17 |
| Clc1cccc(N=C2NCCN2)c1Cl | 8.55 |
| COc1cc(NS(C)(=O)=O)ccc1Nc1c2ccccc2nc2cc(C#N)ccc12 | 5.94 |
| Cc1ccc(NS(=O)(=O)Cc2ccccc2)c(=O)n1CC(=O)NCc1cnc(N)cn1 | 2.7 |
| CS(=O)(=O)Nc1ccc(Nc2c3ccccc3nc3cccc([N+](=O)[O-])c23)cc1 | 4.79 |

| SMILES | pKa |
| --- | --- |
| COC(=O)C1=C(C)NC(C)=C(C(=O)OCCN(C)Cc2ccccc2)C1c1cccc([N+](=O)[O-])c1 (stereo not given) | 7.6 |
| FC1(F)CCNCC1 | 8.5 |
| Cn1ccnc1F | 2.3 |
| CC(C)(C)NCc1ccc(S(=O)(=O)c2csc(S(N)(=O)=O)c2)cc1.Cl | 8.08 |
| C[C@H](CCC(=O)O)[C@H]1CC[C@H]2[C@@H]3[C@@H](O)C[C@@H]4C[C@H](O)CC[C@]4(C)[C@H]3CC[C@]12C | 5.08 |
| OCCOCCN1CCN(C(c2ccccc2)c2ccc(Cl)cc2)CC1 (stereo not given) | 7.75 |
| CCCCCCS(=O)(=O)Nc1ccc(Nc2c3ccccc3nc3ccccc23)cc1 | 7.17 |
| Cc1ccc(NS(=O)(=O)Cc2ccccc2)c(=O)n1CC(=O)NCc1ccc(C(=N)N)s1 | 10.3 |
| CN(C)CCN=C(O)c1cccc2cc3ccccc3nc12 | 3.54 |
| Cc1ccc2nc3ccccc3c(Nc3ccc(NS(C)(=O)=O)cc3)c2c1 | 7.23 |
| c1cnon1 | -5 |
| CC(CN1c2ccccc2Sc2ccccc21)N(C)C (stereo not given) | 9.1 |
| COC(=O)Nc1ccccc1Nc1c2ccccc2nc2ccccc12 | 7.24 |
| O=C(C1CCN(c2ccncn2)CC1)N1CCN(S(=O)(=O)c2ccc(Br)cc2)CC1 | 6.1 |
| COc1ccccc1Nc1c2ccccc2nc2ccccc12 | 7.74 |
| C/C(=N\N=C(/S)N/N=C(\S)Nc1cccc(Cl)c1Cl)c1ccccn1 | 7.09 |
| Nc1ccccn1 | 6.71 |
| CS(=O)(=O)NCc1ccccc1Nc1c2ccccc2nc2ccccc12 | 7.17 |
| Clc1cccc(Cl)c1NC1=NCCN1 | 8.05 |
| O=c1ccc(-c2ccc(S(=O)(=O)Nc3cccc4c3CCCC4)s2)n[nH]1 | -2.5 |
| CC(=O)Nc1ccc2c(Nc3ccc(NS(C)(=O)=O)cc3)c3ccccc3[nH+]c2c1.CS(=O)(=O)[O-] | 7.34 |
| Cc1ccc(NS(=O)(=O)Cc2ccccc2)c(=O)n1CC(=O)NCc1ccc(C(=N)N)cc1 | 10.2 |
| CCOC(=O)C1(c2ccccc2)CCN(C)CC1 | 8.7 |
| CN(C)CCNC(=O)c1cccc2ccc(-c3ccccc3)nc12 | 2.75 |
| CNC(=O)COc1cccc2c(Nc3ccc(NS(C)(=O)=O)cc3OC)c3ccccc3nc12 | 7.35 |

| SMILES | pKa |
| --- | --- |
| CN(C)c1ccc(Nc2c3ccccc3nc3ccccc23)cc1 | 8.46 |
| NC(=O)CCc1ccc(Nc2c3ccccc3nc3ccccc23)cc1 | 7.63 |
| Ic1ccc(Nc2c3ccccc3nc3ccccc23)cc1 | 6.9 |
| CN1CCN2c3ccccc3Cc3ccccc3C2C1 (stereo not given) | 7.1 |
| Cc1ccc(S(=O)(=O)c2nc(N3CCc4ccccc4C3)sc2Cl)cc1 | -3.78 |
| CS(=O)(=O)Nc1ccc(Nc2c3ccccc3nc3cc(Br)ccc23)cc1 | 6.56 |
| NC(=O)C(F)(F)F | 17.2 |
| Cn1ccnc1 | 7.12 |
| O=c1[nH]c(=O)n([C@H]2C[C@H](O)[C@@H](CO)O2)cc1I | 8.2 |
| N[C@@H](CS)C(=O)O | 8.3 |
| CS(=O)(=O)Nc1ccc(Nc2c3ccccc3nc3ccccc23)cc1 | 7.19 |
| Cc1c(-c2noc(-c3ccc(OC(C)C)c(C#N)c3)n2)cnc2c1CCN(C(CO)CO)C2 | 6.2 |
| CS(=O)(=O)Nc1ccc(Nc2c3ccccc3nc3cc(Cl)ccc23)cc1 | 6.57 |
| CCn1c(=O)c2nc(-c3ccc(S(=O)(=O)NCCN(C)C)cc3)[nH]c2n(CC)c1=O | 8 |
| CC(C(=O)O)c1ccc(-c2ccccc2)c(F)c1 (stereo not given) | 4.6 and 4.2 |
| FC1(Cc2ccccc2)CCN(CCCc2c[nH]c3ccc(-n4cnnc4)cc23)CC1 | 8.8 |
| COc1cccc(S(=O)(=O)Nc2cccn(CC(=O)NCc3ccc(C(=N)N)cc3Cl)c2=O)c1 | 9.4 |
| CNCc1cn(S(=O)(=O)c2cccnc2)c(-c2cccnc2F)c1F | 8.54 |
| COc1ccc2nc3ccccc3c(Nc3ccc(NS(C)(=O)=O)cc3)c2c1 | 6.87 |
| COc1cc2nc(N3CCN(C(=O)C4CCCO4)CC3)nc(N)c2cc1OC (stereo not given) | 7.1 |
| CCc1ncc[nH]1 | 7.73 |
| CS(=O)(=O)Nc1ccc(Nc2c3ccccc3nc3cccnc23)cc1 | 6.9 |
| O=[PH](O)CCc1ccccc1 | 1.98 |
| Cc1nc(N)ncc1CNC(=O)Cn1c(C)cnc(NCC(F)(F)c2ccccc2)c1=O | 4.2 |
| CS(=O)(=O)Nc1ccc(Nc2c3ccccc3nc3ccc(N)cc23)cc1 | 7.15 |

| SMILES | pKa |
| --- | --- |
| CS(=O)(=O)c1ccc(Nc2c3ccccc3nc3ccccc23)cc1 | 5.81 |
| CC(C)Oc1ccc(-c2nc(-c3ccc4c(c3)CCN(C(CO)CO)CC4)no2)cc1C#N | 7.8 |
| COc1ccc2c(c1)N(C[C@H](C)CN(C)C)c1ccccc1S2 | 9.19 |
| CCOc1ccccc1Nc1c2ccccc2nc2ccccc12 | 7.85 |
| Ic1ccccc1Nc1c2ccccc2nc2ccccc12 | 6.47 |
| CNCCCC12CCC(c3ccccc31)c1ccccc12 | 10.5 |
| O=S1NC(CCc2ccccc2)=NO1 (stereo not given) | 5.23 |
| O=C(c1ccc(CN2CCOCC2)cc1)N1CCN(C2CCC2)CC1 | 6.5 |
| COc1cccc(S(=O)(=O)Nc2cccn(CC(=O)NCc3ccc(C(=N)N)cc3OC)c2=O)c1 | 10 |
| Cc1nc2c(C/C=C/c3ccccc3)cccn2c1CC#N | 6 |
| COc1cc(NS(C)(=O)=O)ccc1Nc1c2ccccc2nc2c(C(N)=O)cccc12 | 6.37 |
| O=C1CC2(CCCC2)CC(=O)N1CCCCN1CCN(c2ncccn2)CC1 | 7.8 |
| CC(C)c1ccccc1Nc1c2ccccc2nc2ccccc12 | 7.64 |
| CS(=O)(=O)Nc1ccc(Nc2c3ccccc3nc3ccccc23)c(Cl)c1 | 6.34 |
| Clc1cc(Br)cc(Cl)c1N=C1NCCN1 | 7.72 |
| COC(=O)C(c1ccccc1)C1CCCCN1 (stereo not given) | 9.24 |
| CS(=O)(=O)Nc1ccc(Nc2c3ccccc3nc3c([N+](=O)[O-])cccc23)cc1 | 4.88 |
| Cc1cnc(NCC2(c3ccc(Cl)cc3)CCC2)c(=O)n1CC(=O)NCc1cnc(N)cn1 | 2.7 |
| CS(=O)(=O)Nc1ccc(Nc2c3ccccc3nc3cc([N+](=O)[O-])ccc23)cc1 | 5.52 |
| Fc1cccc(F)c1N=C1NCCN1 | 8.18 |
| CCCOC(=O)CN(CCN(CCN(CC(=O)O)CC(=O)O)CC(=O)O)CC(=O)O | 1.8 |
| Cl.Fc1ccc2c(c1)N(CCCN1CCCC1)c1cc(F)ccc1CC2 | 7.6 |
| Cc1cc(Cl)cc(C)c1N=C1NCCN1 | 10.2 |
| COc1ccc2c(c1)N(CCN(C)C)CCO2 | 8.6 |
| Cc1cnc(NCC(F)(F)c2ccc(F)cc2)c(=O)n1CC(=O)NCc1cnc(N)cn1 | 2.7 |

— the pKa sets of Baltruschat and Czodrowski (2020)
